Measurements reported in patent US9872919B2, “Prodrugs for selective anticancer therapy” (THE RESEARCH FOUNDATION FOR THE STATE UNIVERSITY OF NEW YORK, priority 2012, dated 2018).
Where a SMILES comes first, the peptide text is derived from it. The star is where a group is joined. Cbz = O=C(OCc1ccccc1)*

Key:
BxPC3 shSki cells = assay: MTT cell viability assay, BxPC3 shSki; assay type: cell-based, human; settings: for difference in IC50 values shSki versus shGFP: BxPC3 shSki over shGFP; for IC50: Homo sapiens, BXPC-3, MTT, 72 hr, Ski knockdown
Procedure: (§1) FIG. 24. Effect of the prodrug on cell viability of BxPC3 cells (shGFP and shSki). Cells were treated with the indicated dose of drugs (BKAc-5FCR or 5FCR) for 72 hr followed by MTT assay. Data represent mean values of triplicate measurements±standard deviation. IC50 values were derived from nonlinear curve fit of the dose response data using an outlier's exclusion, variable slope model (GraphPad Prism software). All values are means of at least two independent experiments.
(§2) The in vitro efficacy of the compounds in a series of BxPC3 and CFPac-1 derivatives with reduced Class I HDAC activity following Ski knockdown (shSki), HDAC3 knockdown and control (shGFP) was assessed. The growth inhibitory/viability effects of the compounds (IC50 value, the concentration resulting in 50% growth inhibition) on the various cell lines were determined by dose response curve analysis (GraphPad Prism software) of MTT [3-(4,5dimethylthiazol-2-yl)-2,5-diphenyl-tetrazolium bromide] cell viability assay. If the prodrugs are activated in an HDAC-dependent manner, the cells with reduced HDAC activity would be predicted to be more resistant to the prodrug treatment than control cells, while the effect of free parental drugs on both cells would be expected to be similar.

[1] = test system: BxPC3 shGFP control cells; assay: MTT cell viability assay, BxPC3 shGFP; assay type: cell-based; settings: Homo sapiens, BXPC-3, 72 hr
Procedure: as §1, §2

BXPC-3 cells = assay: MTS cell viability assay with or without TSA; assay type: cell-based, human; settings: 20 μM, 72 hr, with TSA (50 μM as printed)
Procedure: FIG. 25. Selective cytotoxicity by BKAc-5FCR. Human pancreatic BXPC3 cells were treated with DMSO (vehicle), BKAc-5FCR (20 μM), or 5FCR (20 μM) for 72 hr with or without TSA (50 μM) followed by MTS cell viability assay. Representative phase contrast images of cells treated with DMSO (vehicle) or BKAc-5FCR (20 μM) for 72 hr with or without TSA (50 μM) are shown.

[2] = test system: HDAC and cathepsin L in BxPC3 and CFPac-1 cells; assay: Live cell enzymatic assay with Boc-Lys(Ac)-AMC in pancreatic cancer cells; assay type: cell-based, human; settings: for activation of substrate Boc-Lys(Ac)-AMC (AMC release): 6 hr, Z-FY-CHO 10 μM
Procedure: FIG. 5. A. HDAC assay using different substrates in BxPC3 cells (shGFP and shSki). Cells were incubated with Boc-Lys(Ac)-AMC or Ac-Arg-Gly-Lys(Ac)-AMC (25 μM) for 1 hr with DMSO (vehicle) or TSA (1 μM) as indicated, followed by cell lysis and trypsin treatment, and fluorescence measurements. Data represent mean values of triplicate measurements±standard deviation. RFU, relative fluorescent units. B. Similar experiment was done as in A but without cell lysis and trypsin treatment. Cells were incubated with the substrates for 2.5 hr.
FIG. 6. A. Release of AMC by combined HDAC and endogenous protease-dependent enzymatic reaction in BxPC3 and CFPac-1 cells (shGFP and shSki). Cells were incubated with substrate Boc-Lys(Ac)-AMC (25 μM) for 6 hr with DMSO (vehicle), TSA (1 μM), or Z-FY-CHO (10 μM) as indicated, followed by fluorescence measurements. Data represent mean values of triplicate measurements±standard deviation. RFU, relative fluorescent units. B. Time course of AMC release in BxPC3 cells (shGFP and shSki). Each cells were incubated with Boc-Lys(Ac)-AMC (25 μM) for 2.5, 6.0, and 23 hr with DMSO (vehicle) or TSA (1 μM) as indicated.
(§3) Tissue culture based standard HDAC assays were performed by commercially available fluorimetric HDAC assay kit (SensoLyte, AnaSpec) according to the manufacturer's instruction with modification of using 25 μM Boc-Lys(Ac)-AMC (Bachem) as substrate and measuring parameter (Ex/Em=355 nm/460 nm) for AMC. Basically, HDAC substrate 25 μM Boc-Lys(Ac)-AMC [either with DMSO or 1 μM TSA (Sigma)] was applied to the overnight culture seeded from 6×10^4 cells in 100 μl medium in 96-well tissue culture plates, followed by 2 to 3 h incubation at 37° C. with 5% CO2 atmosphere. Then the deacetylation reaction was terminated by addition of HDAC developer solution containing cell lysis buffer and trypsin reagents. After 15 m incubation at room temperature, the fluorescent signal of AMC was measured by SpectraMax M5 microplate reader (Molecular Devices) at Ex/Em=355 nm/460 nm. Live cell lysyl endopeptidase assay was performed by applying the substrate 25 μM Boc-Lys-AMC (Bachem) [either with DMSO or 100 μM Z-FY-CHO (EMD)] to the overnight culture seeded from 6×10^4 cells in 100 μl medium in 96-well tissue culture plates, followed by 20 h incubation at 37° C. with 5% CO2 atmosphere, then the fluorescent signal of AMC was measured. Live cell enzymatic assay using Boc-Lys(Ac)-AMC was performed by applying the substrate 25 μM Boc-Lys(Ac)-AMC (either with DMSO, 1 μM TSA or 100 μM Z-FY-CHO) to the overnight culture seeded from 6×10^4 cells in 100 μl medium in 96-well tissue culture plates, followed by 20 h incubation at 37° C. with 5% CO2 atmosphere, then the fluorescent signal of AMC was measured. Experiments were repeated at least three times.

[3] = test system: HCT116, HT29, CCD841-CoN and Caco-2 cells; assay: Cell killing by parental Puro (MTS); assay type: cell-based, human
Procedure: FIG. 14. Inhibition of cell viability by parental Puro. The cell lines were treated with the indicated doses of Puro (0, 1.1, 2.1, 4.2, or 8.4 μM) for 3 d followed by MTS assay. Data represent mean values of triplicate mesurements±s.d.
Cell number was determined by cell counting using improved Neubauer hemacytometer. Cell viability was calculated as the number of viable cells divided by the total number of cells using Trypan Blue Stain (Invitrogen) to distinguish non-viable cells. Data were obtained from duplicated samples with quadruplicate measurements. MTS based cell viability assay was performed using CellTiter 96 Aqueous Cell Proliferation Assay (Promega) according to the manufacturer's instruction. Either 1 μl of DMSO alone or variable concentrations of BKAc-Puro or Puro in DMSO were added to the cell lines seeded at 5×10^4 cells per well in 96-well tissue culture plates in 100 μl of the growth medium, followed by 3-5 d incubation at 37° C. with 5% CO2 atmosphere. […] After additional 2-3 h incubation, the absorbance of the formazan at 490 nm was measured by the microplate reader. […] Determination of non-viable cells using PI staining was performed by adding 1 μg/ml of PI solution (Sigma) to the cell culture, prior to the examination under fluorescence microscopy (Axiovert 3, Carl Zeiss) through a×32 objective equipped with a digital imaging processor (Infinity 3, Lumenera).

[4] = test system: HCT116, HT29, CCD841-CoN and Caco-2 cells; assay: Immunological detection of Puro-labeled proteins in cells; assay type: cell-based, human; settings: immunoblot; Boc-KAc-Puro 16.9 μM 20 h; Puro 2.1 μM 16 h
Procedure: FIG. 27. Levels of Puro-incorporated proteins in the cells were monitored by immunoblotting. Indicated cell lines were treated either with vehicle control DMSO or Boc-KAc-Puro (16.9 μM) in the presence or absence of TSA (0.5 μM) for 20 h, followed by preparation of cell lysates. The lower panel (anti-α-Tubulin) serves as a loading control.
FIG. 28. Levels of Puro-incorporated proteins in the cells were monitored by immunoblotting. Indicated cell lines were treated either with vehicle control DMSO or Puro (2.1 μM) in the presence or absence of TSA (0.5 μM) for 16 h, followed by preparation of cell lysates. […] The lower panel (anti-α-Tubulin) serves as a loading control.
Cultured cells or tissue samples were sonicated in RIPA lysis buffer (1% NP-40, 0.1% SDS, 50 mM Tris-HCl pH 7.4, 150 mM NaCl, 0.5% sodium deoxycholate, 1 mM EDTA) supplemented with PMSF and protease inhibitor cocktail (Roche) on ice followed by clarification. Protein lysates were separated on sodium dodecyl sulfate-polyacrylamide gels and transferred onto nitrocellulose membranes (Whatman). The primary antibodies used were anti-puromycin (3RH11, KeraFAST) and anti-α-tubulin (Sigma-Aldrich). Proteins of interest were detected with anti-mouse secondary antibody by chemiluminescence (ECL Kit, GE Healthcare Life Sciences).

cathepsin L (CTSL) = assay: Live cell lysyl endopeptidase assay with Boc-Lys-AMC; assay type: cell-based; settings: Z-FY-CHO 100 μM, live cells, all cases tested
Procedure: FIG. 2. Comparative live cell lysyl endopeptidase activity of the same cell lines as in FIG. 1 using substrate Boc-Lys-AMC either with vehicle control DMSO or Z-FY-CHO (100 μM). Data represent mean values of triplicate measurements±s.d. RFU, relative fluorescent units.
as §3, with “Then the deacetylation reaction was terminated by addition of HDAC developer solution containing cell lysis buffer and trypsin reagents.” left out, “Live cell enzymatic assay using Boc-Lys(Ac)-AMC was performed by applying the substrate 25 μM Boc-Lys(Ac)-AMC (either with DMSO, 1 μM TSA or 100 μM Z-FY-CHO) to the overnight culture seeded from 6×10^4 cells in 100 μl medium in 96-well tissue culture plates, followed by 20 h incubation at 37° C. with 5% CO2 atmosphere, then the fluorescent signal of AMC was measured. Experiments were repeated at least three times.” left out

Nc1nc(=O)n([C@@H]2O[C@H](CO)[C@@H](O)[C@H]2O)cc1F [5FCR, 5-fluorocytidine, reference compound]
difference in IC50 values shSki versus shGFP (BxPC3 shSki cells): no significant changes | IC50 (BxPC3 shSki cells): 1.2 µM | IC50 [1]: 1.3 µM

CC(=O)NCCCCC(NC(=O)OC(C)(C)C)C(=O)Nc1nc(=O)n([C@@H]2O[C@H](CO)[C@@H](O)[C@H]2O)cc1F (stereo partly drawn) [BKAc-5FCR, t-butyl (6-acetamido-1-((1-((2R,3R,4S,5R)-3,4-dihydroxy-5-(hydroxymethyl)tetrahydrofuran-2-yl)-5-fluoro-2-oxo-1,2-dihydropyrimidin-4-yl)amino)-1-oxohexan-2-yl)carbamate]
difference in IC50 values shSki versus shGFP (BxPC3 shSki cells): two-fold | IC50 (BxPC3 shSki cells): 5.2 µM | cytotoxic effect in the presence of HDAC inhibitor TSA (BXPC-3 cells): substantially compromised | IC50 [1]: 2.6 µM

CC(=O)NCCCC[C@H](NC(=O)OC(C)(C)C)C(=O)Nc1ccc2c(C)cc(=O)oc2c1 [Boc-Lys(Ac)-AMC]
activation of substrate in live cells relative to total HDAC activity ([2]; BxPC3, 25 μM, 2.5 hr, without cell lysis and trypsin): approximately 50%

COc1ccc(C[C@H](N)C(=O)N[C@H]2[C@@H](O)[C@H](n3cnc4c(N(C)C)ncnc43)O[C@@H]2CO)cc1 [Puro, puromycin, reference compound]
cell killing [3]: kill all of these cells examined | intensity of Puro incorporation, malignant vs normal and non-malignant cells [4]: no difference

CC(/C=C/C(=O)NO)=C\[C@@H](C)C(=O)c1ccc(N(C)C)cc1 [TSA, Trichostatin A]
activation of substrate Boc-Lys(Ac)-AMC (AMC release) ([2]; TSA 1 μM): completely inhibited activation | AMC release, time course ([2]; BxPC3, 20 hr time course, TSA 1 μM): AMC release was inhibited

O=C[C@H](Cc1ccc(O)cc1)NC(=O)[C@H](Cc1ccccc1)NC(=O)OCc1ccccc1 [Z-FY-CHO] (Cbz-Phe-Tyr-aldehyde)
release of AMC from Boc-Lys-AMC (cathepsin L (CTSL)): significantly blocked | activation of substrate Boc-Lys(Ac)-AMC (AMC release) ([2]; TSA 1 μM): completely abrogated the activation of the substrate
